Source: patent publication US12492181B2, “Gem-disubstituted piperidine melanocortin subtype-2 receptor (MC2R) antagonists and uses thereof” (Crinetics Pharmaceuticals, Inc., priority 2019, dated 2025)

Biological target: T1, hMC2 receptor (crude hMC2R membranes from CRE-bla-CHO-K1 cells stably expressing hMC2 receptor and hMRAP accessory protein) (Homo sapiens, UniProt Q01718)
T1 construct: crude membrane fractions
Test: hMC2 membrane binding assay ([125I]ACTH (1-39) Tyr23, SPA)
Conditions: displacement of 0.2 nM [125I]ACTH (1-39) Tyr23 from hMC2R membranes, 1.5 hours at room temperature; read-out: MC2R binding potency
How it was run: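 Crude membranes from CRE-bla-CHO-K1 cells stably co-expressing hMC2R and hMRAP, premixed with WGA PVT SPA beads in pH 7.4 HEPES buffer (5 mM MgCl2, 1 mM CaCl2, 0.20% BSA, protease inhibitors). Compounds compete with [125I]ACTH(1-39) Tyr23, read by scintillation. Ki from non-linear regression.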

T1 sequence (Q01718 whole entry): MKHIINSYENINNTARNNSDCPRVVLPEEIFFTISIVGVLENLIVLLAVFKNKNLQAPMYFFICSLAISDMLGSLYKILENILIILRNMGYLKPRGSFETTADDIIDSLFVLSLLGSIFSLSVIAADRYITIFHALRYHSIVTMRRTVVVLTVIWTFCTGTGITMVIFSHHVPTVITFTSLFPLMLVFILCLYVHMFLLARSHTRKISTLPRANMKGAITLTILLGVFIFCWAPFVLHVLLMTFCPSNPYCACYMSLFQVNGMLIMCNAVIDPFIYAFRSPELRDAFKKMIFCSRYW
T1 sequence (Q8TCY5 whole entry partner): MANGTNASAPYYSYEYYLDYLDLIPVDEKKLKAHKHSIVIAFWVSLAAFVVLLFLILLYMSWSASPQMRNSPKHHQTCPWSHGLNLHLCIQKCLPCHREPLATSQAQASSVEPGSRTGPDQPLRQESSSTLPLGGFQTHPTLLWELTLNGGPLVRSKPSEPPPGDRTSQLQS

Ki [nM] | Compound
< 10 | COc1ccccc1-c1ncc(C2(NC(=O)CCN(C)C)CCN(c3ccc(C(F)(F)F)cc3C#N)CC2)cc1F [Compound 2-62, N-{1-[2-cyano-4-(trifluoromethyl)phenyl]-4-[5-fluoro-6-(2-methoxyphenyl)pyridin-3-yl]piperidin-4-yl}-3-(dimethylamino)propanamide]
< 10 | CNCCC(=O)NC1(c2cnc(-c3ccccc3OC)c(F)c2)CCN(c2ccc(C(F)(F)F)cc2C#N)CC1 [Compound 2-63, N-{1-[2-cyano-4-(trifluoromethyl)phenyl]-4-[5-fluoro-6-(2-methoxyphenyl)pyridin-3-yl]piperidin-4-yl}-3-(methylamino)propanamide]
< 10 | (3R)-1-methylpyrrolidin-3-yl N-{1-[2-cyano-4-(trifluoromethyl)phenyl]-4-{2′-ethoxy-[2,3′-bipyridin]-5-yl}piperidin-4-yl}carbamate [Compound 2-22]
